Test results as given in patent US8206732B2, “Pyrithione biocides enhanced by silver, copper, or zinc ions” (Arch Chemicals, Inc., priority 1999, dated 2012).
Several values for one entry are separate records, joined by “and”; a condition that tells them apart may be missing. Equal values may be shown once.

Tests used:
[1] = tested on: Pseudomonas aeruginosa 9027; assay: Checkerboard MIC test, pyrithiones with silver salts; assay type: cell-based; conditions: NaPT alone or in the inhibitory mixture with silver salt; TSB pH 7.3, 35° C., 1 to 2 days
Fusarium sp. = assay: Checkerboard MIC test, pyrithiones with zinc salts; assay type: cell-based; conditions: pyrithione alone or pyrithione concentration in the inhibitory mixture; TSB, 28 C, 5 days
Experimental: Mixtures of pyrithione and zinc or silver in various proportions were tested for relative efficacy by a modification of the procedure described by Dougherty, et al.
Equal volumes of bacteria (10^6 cells/ml) or fungi (10^5 spores/ml) were added to each microtiter plate well. The plates were incubated at 28 C for 3 days (bacteria) or 5 days (fungi), and the minimum inhibitory concentration (MIC) of biocide was determined. The Fractional Inhibitory Concentration (FIC=concentration of biocide in an inhibitory mixture divided by the MIC of the pure biocide) was determined, and the FIC Index (sum of the two FIC's) was calculated. The type of interaction was categorized according to the magnitude of the Index: Synergistic (<1), Additive (1), or Antagonistic (>1).

Cephalosporium sp. = assay: MIC in Tryptic Soy Broth, microtiter (Example 1); assay type: cell-based; conditions: 28° C.
[2] = tested on: Aspergillus niger ATCC 6275; assay: MIC in Tryptic Soy Broth, microtiter (Example 1); assay type: cell-based; conditions: 28° C.
Fusarium sp. biofilm = assay: Viable biofilm cells on discs in metalworking fluid (Example 5); assay type: cell-based; conditions: polycarbonate disc, 100 PPM NaPT, 10 PPM Zn (II) or both, 4 days after treatment
Experimental: Experiments were conducted to investigate the efficacy of the composition of the present invention to inhibit the survival, growth, and proliferation of free-living and biofilm populations of bacteria and fungi in metalworking fluids. […] Metalworking fluids (MWF) employed included 5% soluble oil MWF, 5% semi-synthetic MWF, or 5% synthetic MWS. For testing against bacteria, metalworking fluids were supplemented with 2% (weight-to-weight ratio (w:w)) of 5 g/L yeast extract (Difco), Metalworking fluids were supplemented with 2% (weight-to-weight (w:w)) of Tryptic Soy Broth (Difco) for fungal tests.
For each experiment, three ml of a 5% metalworking fluid was added to each of twelve, sterile, 16 mm×150 mm glass culture tubes. […] Fusarium sp. was added to the tubes to final concentrations of 10^5 spores/ml for the fungal tests. Tubes incubated for 3 days at 28° C. and 180 rpms.
After the treatments additions were performed, the culture tubes resumed incubation at 28° C., 180 rpms for an additional 4 days.
After 4 days, culture tubes were removed from the incubator and viable counts of organisms from the bulk MWF fluid and the biofilm were determined using serial dilution and drop plating techniques. For biofilms, polycarbonate discs were removed from tubes, dip-rinsed in three successive washes of de-ionized water to remove loosely attached cells, and transferred to 25 mm×150 mm culture tubes containing 10 ml of sterile, de-ionized water. Biofilms were removed from discs and resuspended by vortexing tubes for 30 seconds. Bacteria were plated on to R2A Agar plates and incubated at 37° C. Fungi were plated onto Malt Agar plates and incubated at 28° C. Mean colony forming units per ml (for bulk) and per square cm (cm^2) biofilm were determined for each experimental treatment.

E. coli 8739 biofilm = assay: as above; assay type: cell-based, Escherichia coli; conditions: polycarbonate disc, 100 PPM NaPT, 10 PPM Zn (II) or both, 4 days after treatment
[3] = tested on: Escherichia coli ATCC 10536; assay: Zone of inhibition test (paper disc on TSA); assay type: cell-based; conditions: 6.5 mm discs; 0.135% pyrithione, 0.1% ZnCl2 or both; 28° C., 24 hr
[4] = tested on: Pseudomonas aeruginosa NCIMB 6749; assay: Zone of inhibition test (paper disc on TSA); assay type: cell-based; conditions: 6.5 mm discs; 0.135% pyrithione, 0.1% ZnCl2 or both; 28° C., 24 hr
[5] = tested on: Pseudomonas aeruginosa ATCC 9027; assay: MIC in Tryptic Soy Broth, microtiter (Example 1); assay type: cell-based; conditions: 28° C.
[6] = tested on: mixed bacteria (Pseudomonas aeruginosa 9027, Escherichia coli 8739, Pseudomonas fluorescens 12201, Pseudomonas rubescens 12202, Pseudomonas putida); assay: Various mixtures of NaPT and Zn(II) against bacteria in 5% metalworking fluid (Example 8, Table 10a); assay type: cell-based, Pseudomonas spp.
[7] = tested on: P. aeruginosa 9027 biofilm; assay: Viable biofilm cells on discs in metalworking fluid (Example 5); assay type: cell-based, Pseudomonas aeruginosa; conditions: 100 PPM NaPT; for viable biofilm cells: 5% soluble oil MWF, 2.5 PPM Zn(II) or both, 4 days
[8] = tested on: Staphylococcus aureus ATCC 27217; assay: Zone of inhibition test (paper disc on TSA); assay type: cell-based; conditions: 6.5 mm discs; 0.135% pyrithione, 0.1% ZnCl2 or both; 28° C., 24 hr
[9] = tested on: Pseudomonas aeruginosa NCIMB 6749; assay: Checkerboard MIC test, pyrithiones with zinc salts; assay type: cell-based; conditions: pyrithione alone or pyrithione concentration in the inhibitory mixture; TSB, 28 C, 3 days
Escherichia coli 10536 = assay: Checkerboard MIC test, pyrithiones with silver salts; assay type: cell-based; conditions: NaPT alone or in the inhibitory mixture with silver salt; TSB pH 7.3, 35° C., 1 to 2 days
[10] = tested on: E. coli 8739 free-living cells; assay: Viable free-living cells in bulk metalworking fluid (Example 5); assay type: cell-based, Escherichia coli; conditions: 100 PPM NaPT, 10 PPM Zn (II) or both, 4 days after treatment

[Na+].[O-][n+]1ccccc1[S-] [NaPT, sodium pyrithione]
MIC NaPT [1]: 256 ppm | MIC Pyrithione (Fusarium sp.): 411 ppm | MIC NaPT (with 0.5 ppm Cu) (Cephalosporium sp.; TSB with 0.5 ppm Cu (II), 5 days): 16 ppm | MIC (Cephalosporium sp.; TSB, incubated 5 days, single agent (NaPT without Cu)): 64 ppm | MIC NaPT (with 0.5 ppm Cu) ([2]; TSB with 0.5 ppm Cu (II), 7-8 days): 8 ppm | MIC ([2]; TSB, incubated 7-8 days, single agent (NaPT without Cu)): 128 ppm | viable biofilm microorganisms (Fusarium sp. biofilm; 5% semisynth. MWF): 18 cells/cm^2 | viable biofilm microorganisms (Fusarium sp. biofilm; 5% solub. oil MWF): 4.6 × 10^5 cells/cm^2 | viable biofilm microorganisms (Fusarium sp. biofilm; 5% synthetic MWF): 7.3 × 10^4 cells/cm^2 | viable biofilm microorganisms (Fusarium sp. biofilm; 100% TSB): 96 cells/cm^2 | viable biofilm microorganisms (E. coli 8739 biofilm; 5% solub. oil MWF): 1.6 × 10^5 cells/cm^2 | viable biofilm microorganisms (E. coli 8739 biofilm; 10% TSB): 1.4 × 10^6 cells/cm^2 | Zone of Inhibition [3]: 35 mm | Zone of Inhibition [4]: 8 mm | MIC NaPT (with 0.5 ppm Cu) ([5]; TSB with 0.5 ppm Cu (II), 5-6 days): 256 ppm | MIC ([5]; TSB, incubated 5-6 days, single agent (NaPT without Cu)): 256 ppm | Bacteria/ml ([6]; semi-synthetic, NaPT 100 PPM, Day 1): 1.8 × 10^5 Bacteria/ml | Bacteria/ml ([6]; semi-synthetic, NaPT 100 PPM, Day 1, tube of the Day 1/Day 4 series): 1.7 × 10^4 Bacteria/ml | Bacteria/ml ([6]; semi-synthetic, NaPT 100 PPM, Day 2): 1.9 × 10^5 Bacteria/ml | Bacteria/ml ([6]; semi-synthetic, NaPT 100 PPM, Day 4): 1.2 × 10^4 Bacteria/ml | Bacteria/ml ([6]; semi-synthetic, NaPT 100 PPM, Day 7): 510 Bacteria/ml | Bacteria/ml ([6]; semi-synthetic, NaPT 300 PPM, Day 1): 1.2 × 10^5 Bacteria/ml | Bacteria/ml ([6]; semi-synthetic, NaPT 300 PPM, Day 2): 0 Bacteria/ml | Bacteria/ml ([6]; semi-synthetic, NaPT 300 PPM, Day 7): 0 Bacteria/ml | Bacteria/ml ([6]; semi-synthetic, NaPT 500 PPM, Day 2): 0 Bacteria/ml | Bacteria/ml ([6]; semi-synthetic, NaPT 500 PPM, Day 7): 0 Bacteria/ml | Bacteria/ml ([6]; soluble oil, NaPT 100 PPM, Day 1): 2.4 × 10^5 Bacteria/ml | Bacteria/ml ([6]; soluble oil, NaPT 100 PPM, Day 1, tube of the Day 1/Day 4 series): 5.9 × 10^6 Bacteria/ml | Bacteria/ml ([6]; soluble oil, NaPT 100 PPM, Day 2): 6.0 × 10^3 Bacteria/ml | Bacteria/ml ([6]; soluble oil, NaPT 100 PPM, Day 4): 1.5 × 10^6 Bacteria/ml | Bacteria/ml ([6]; soluble oil, NaPT 100 PPM, Day 7): 2.0 × 10^4 Bacteria/ml | Bacteria/ml ([6]; soluble oil, NaPT 300 PPM, Day 1): 7.1 × 10^4 Bacteria/ml | Bacteria/ml ([6]; soluble oil, NaPT 300 PPM, Day 2): 9.0 × 10^3 Bacteria/ml | Bacteria/ml ([6]; soluble oil, NaPT 300 PPM, Day 7): 0 Bacteria/ml | Bacteria/ml ([6]; soluble oil, NaPT 500 PPM, Day 2): 450 Bacteria/ml | Bacteria/ml ([6]; soluble oil, NaPT 500 PPM, Day 7): 0 Bacteria/ml | Bacteria/ml ([6]; synthetic, NaPT 100 PPM, Day 1): 2.9 × 10^6 Bacteria/ml | Bacteria/ml ([6]; synthetic, NaPT 100 PPM, Day 1, tube of the Day 1/Day 4 series): 2.1 × 10^6 Bacteria/ml | Bacteria/ml ([6]; synthetic, NaPT 100 PPM, Day 2): 1.7 × 10^5 Bacteria/ml | Bacteria/ml ([6]; synthetic, NaPT 100 PPM, Day 4): 2.0 × 10^5 Bacteria/ml | Bacteria/ml ([6]; synthetic, NaPT 100 PPM, Day 7): 1.5 × 10^4 Bacteria/ml | Bacteria/ml ([6]; synthetic, NaPT 300 PPM, Day 1): 5.0 × 10^4 Bacteria/ml | Bacteria/ml ([6]; synthetic, NaPT 300 PPM, Day 2): 4.0 × 10^3 Bacteria/ml | Bacteria/ml ([6]; synthetic, NaPT 300 PPM, Day 7): 0 Bacteria/ml | Bacteria/ml ([6]; synthetic, NaPT 500 PPM, Day 1): 1.2 × 10^5 Bacteria/ml | Bacteria/ml ([6]; synthetic, NaPT 500 PPM, Day 2): 1.0 × 10^3 Bacteria/ml | Bacteria/ml ([6]; synthetic, NaPT 500 PPM, Day 7): 50 Bacteria/ml | viable biofilm microorganisms ([7]; 5% solub. oil MWF, polycarbonate disc, 10 PPM Zn (II) or both, 4 days after treatment): 2.0 × 10^5 cells/cm^2 and 2.6 × 10^4 cells/cm^2 | viable biofilm cells ([7]; Polycarbonate surface): 2.8 × 10^4 cells/cm^2 | viable biofilm cells ([7]; Rubber surface): 5.3 × 10^2 cells/cm^2 | viable biofilm cells ([7]; Steel surface): 1.1 × 10^5 cells/cm^2 | Zone of Inhibition [8]: 31 mm | MIC Pyrithione [9]: 128 ppm | MIC NaPT (Escherichia coli 10536): 16 ppm | viable free-living microorganisms ([10]; 5% solub. oil MWF): 5.3 × 10^7 cells/ml | viable free-living microorganisms ([10]; 10% TSB): 9.1 × 10^8 cells/ml
